We go through 35 compounds from patent US20260306640A1, “TECHNOLOGIES TARGETING CELL STATES” (Auron Therapeutics, Inc., priority 2023, published 2026).

The structures appear in SMILES notation. Bounds are passed on as bounds.

For one experiment, the target named is KAT2A (Homo sapiens, UniProt Q92830). The experiment can be described thus: KAT2A degradation, Western Blot (Jess), NCI-H1048 cells. In kind it is cell-based. Particulars: NCI-H1048 cells, KAT2A, 24 h, Western Blot, vs DMSO; read-out: KAT2A NCI-H1048 DC50. On the set-up: degrader, Western blot (Jess). The method, then: (§1) MOLM-13 cells or NCI-H1048 cells were used for Western Blot analysis of KAT2A degradation. KAT2B degradation can be measured in a similar manner with NCI-H1048 cells.
(§2) H1048 cells were maintained at 37° C. in 5% CO2 and 90% humidity in HITES medium with 5% fetal bovine serum (FBS). HITES medium was […] with the following additions: 0.005 mg/ml Insulin, 0.01 mg/ml Transferrin, 30 nM Sodium selenite, 10 nM Hydrocortisone, 10 nM beta-estradiol, and extra 2 mM L-glutamine (for final concentration of 4.5 mM). Cells were plated in full media at 1 million cells/2 mL in a 6-well tissue culture treated plate with or without compounds for 24 h at 37° C. in 5% CO2.
(§3) MOLM-13 cells or NCI-H1048 cells were washed with PBS, then lysed with RIPA buffer containing 1×protease and phosphatase inhibitors (SantaCruz Biotechnologies Cat #sc-24948A). Protein was isolated by centrifugation at 12,000×g for 10 minutes at 4° C. and supernatant was collected. Protein was quantified via Bradford assay. Samples were diluted to 4 μg lysate in 16 μL RIPA buffer and then 4 μL of Jess Sample Buffer. Samples were heated at 95° C. for 5 minutes. Samples were loaded onto 12-230 kDa Jess™ Separation Module, 8×25 capillary cartridges (SM-W004, Biotechne). Antibodies loaded were: Primary antibody for KAT2A (GCN5L2 (C26A10) Rabbit mAb (3305, CST)) and for KAT2B (PCAF (C14G9)) Rabbit mAb (3378, CST) at 1:1000 and Anti-Rabbit Detection Module for Jess™ (Cat No #DM-001, Biotechne). Signal was detected by chemiluminescence.
(§4) DC50 values were determined from percent reduction of protein as compared to the DMSO control.
For orientation: A western blot detects proteins with antibodies after separation by electrophoresis.

For another experiment, the target named is KAT2B (Homo sapiens, UniProt Q92831). The experiment can be described thus: KAT2B degradation, Western Blot (Jess), NCI-H1048 cells. Format: cell-based. Also noted: degrader, Western blot (Jess). Conditions: NCI-H1048 cells, KAT2B, 24 h, Western Blot, vs DMSO; read-out: KAT2B NCI-H1048 DC50. The method, then:
as §1, §2, §3, §4

Chain of KAT2A (Q92830 whole entry): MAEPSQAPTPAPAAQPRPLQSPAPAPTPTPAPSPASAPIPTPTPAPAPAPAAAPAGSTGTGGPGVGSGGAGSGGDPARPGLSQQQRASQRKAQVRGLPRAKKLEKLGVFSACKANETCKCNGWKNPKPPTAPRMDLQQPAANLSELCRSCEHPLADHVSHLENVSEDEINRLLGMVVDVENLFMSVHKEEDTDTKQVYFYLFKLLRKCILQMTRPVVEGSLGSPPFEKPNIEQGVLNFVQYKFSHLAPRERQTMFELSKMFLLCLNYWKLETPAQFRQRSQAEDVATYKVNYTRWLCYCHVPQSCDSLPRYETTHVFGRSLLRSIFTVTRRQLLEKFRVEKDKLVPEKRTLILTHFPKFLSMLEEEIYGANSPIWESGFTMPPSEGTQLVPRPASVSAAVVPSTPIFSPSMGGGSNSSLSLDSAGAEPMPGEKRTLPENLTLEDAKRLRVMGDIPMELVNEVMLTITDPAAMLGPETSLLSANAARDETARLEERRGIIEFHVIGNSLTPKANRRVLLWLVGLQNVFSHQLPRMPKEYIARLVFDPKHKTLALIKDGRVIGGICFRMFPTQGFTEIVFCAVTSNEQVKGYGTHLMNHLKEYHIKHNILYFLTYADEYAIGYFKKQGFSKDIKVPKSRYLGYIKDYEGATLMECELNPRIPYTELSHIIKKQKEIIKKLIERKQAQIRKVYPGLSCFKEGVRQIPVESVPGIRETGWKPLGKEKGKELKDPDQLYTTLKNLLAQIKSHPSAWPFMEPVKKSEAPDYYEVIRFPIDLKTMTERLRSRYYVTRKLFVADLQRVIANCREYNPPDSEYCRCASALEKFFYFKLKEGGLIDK
Chain of KAT2B (Q92831 whole entry): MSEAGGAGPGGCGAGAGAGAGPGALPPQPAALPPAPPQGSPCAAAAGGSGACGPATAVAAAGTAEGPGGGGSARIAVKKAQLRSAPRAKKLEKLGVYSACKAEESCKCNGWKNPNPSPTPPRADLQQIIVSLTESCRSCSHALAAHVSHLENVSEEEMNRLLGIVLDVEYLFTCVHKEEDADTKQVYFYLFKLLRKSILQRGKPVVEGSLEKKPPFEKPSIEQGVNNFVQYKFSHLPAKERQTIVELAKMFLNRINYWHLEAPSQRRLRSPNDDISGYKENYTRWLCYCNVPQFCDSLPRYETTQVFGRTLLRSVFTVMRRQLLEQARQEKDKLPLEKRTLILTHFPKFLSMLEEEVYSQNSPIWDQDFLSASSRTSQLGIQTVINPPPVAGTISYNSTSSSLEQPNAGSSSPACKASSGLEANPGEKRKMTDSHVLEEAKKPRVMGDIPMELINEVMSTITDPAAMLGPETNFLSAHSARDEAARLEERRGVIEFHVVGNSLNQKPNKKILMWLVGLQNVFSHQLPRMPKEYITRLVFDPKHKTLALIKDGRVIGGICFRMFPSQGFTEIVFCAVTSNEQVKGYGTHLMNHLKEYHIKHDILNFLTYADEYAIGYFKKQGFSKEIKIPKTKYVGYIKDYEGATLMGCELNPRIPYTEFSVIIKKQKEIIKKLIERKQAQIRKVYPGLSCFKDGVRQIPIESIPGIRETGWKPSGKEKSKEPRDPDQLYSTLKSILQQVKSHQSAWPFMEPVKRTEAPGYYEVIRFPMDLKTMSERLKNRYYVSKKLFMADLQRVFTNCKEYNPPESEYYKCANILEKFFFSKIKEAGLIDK

For `CN1C[C@H](Nc2cnn(C)c(=O)c2Cl)C[C@H](c2ccc(C(=O)N3CC(c4ccc5c(c4)C(=O)N(C4CCC(=O)NC4=O)C5=O)C3)cc2)C1` (stereo partly shown) [Compound 198], the DC50 (commonly the concentration at which degradation of the target reaches its halfway point) at KAT2A was 1 to 30 nM; on KAT2B it was more than 30 nM.
`CN1C[C@H](Nc2cnn(C)c(=O)c2Cl)C[C@H](c2ccc(CN3CC(c4ccc5c(c4)C(=O)N(C4CCC(=O)NC4=O)C5=O)C3)cc2)C1` (stereo partly shown) [Compound 199]: the DC50 on KAT2A and on KAT2B was more than 30 nM each time.
For `CN1C[C@H](Nc2cnn(C)c(=O)c2Br)C[C@H](c2ccc(CN3Cc4cc5c(cc4C3)C(=O)N(C3CCC(=O)NC3=O)C5=O)cc2)C1` (stereo partly shown) [Compound 200], the DC50 at KAT2A was 1 to 30 nM; on KAT2B it was more than 30 nM.
As to `CN1C[C@H](Nc2cnn(C)c(=O)c2Br)C[C@H](c2ccc(C(=O)N3CCN(c4cccc5c4oc(=O)n5C4CCC(=O)NC4=O)CC3)cc2)C1` (stereo partly shown) [Compound 201], the DC50 is less than 1 nM at KAT2A and 1 to 30 nM at KAT2B.
`CN1C[C@H](Nc2cnn(C)c(=O)c2Br)C[C@H](c2ccc(CN3CC(c4ccc5c(c4)C(=O)N(C4CCC(=O)NC4=O)C5=O)C3)cc2)C1` (stereo partly shown) [Compound 202]: the DC50 at KAT2A is 1 to 30 nM; at KAT2B, more than 30 nM.
In the case of `CN1C[C@H](Nc2cnn(C)c(=O)c2Cl)C[C@H](c2ccc(C(=O)N3CCC(Oc4ccc(C5CCC(=O)NC5=O)c(F)c4)CC3)cc2)C1` (stereo partly shown) [Compound 203], the DC50 is less than 1 nM at KAT2A and 1 to 30 nM at KAT2B.
As for `CN1C[C@H](Nc2cnn(C)c(=O)c2Br)C[C@H](c2ccc(C(=O)N3CCN(C4CCC(N5CCC(=O)NC5=O)CC4)CC3)cc2)C1` (stereo partly shown) [Compound 204], the DC50 at KAT2A and at KAT2B was more than 30 nM in each case.
For the compound `CN1C[C@H](Nc2cnn(C)c(=O)c2Br)C[C@H](c2ccc(C(=O)N3CCN(Cc4cnn(C5CCC(=O)NC5=O)c4)CC3)cc2)C1` (stereo partly shown) [Compound 205], the DC50 at KAT2A and at KAT2B was more than 30 nM each time.
Regarding `CN1C[C@H](Nc2cnn(C)c(=O)c2Br)C[C@H](c2ccc(CN3CCN(C4CCC(N5CCC(=O)NC5=O)CC4)CC3)cc2)C1` (stereo partly shown) [Compound 206], the DC50 on KAT2A and at KAT2B was more than 30 nM throughout.
As for `CN1C[C@H](Nc2cnn(C)c(=O)c2Cl)C[C@H](c2ccc(C(=O)N3CCC4(CC3)CCN(c3cnn(C5CCC(=O)NC5=O)c3)CC4)cc2)C1` (stereo partly shown) [Compound 207], the DC50 on KAT2A was less than 1 nM; on KAT2B it was more than 30 nM.
Regarding `CN1C[C@H](Nc2cnn(C)c(=O)c2Cl)C[C@H](c2ccc(C(=O)N3CCC4(CC3)CCN(c3ccc5c(c3)oc(=O)n5C3CCC(=O)NC3=O)CC4)cc2)C1` (stereo partly shown) [Compound 209], the DC50 at KAT2A and on KAT2B was less than 1 nM throughout.
As to `CN1C[C@H](Nc2cnn(C)c(=O)c2Br)C[C@H](c2ccc(C(=O)N3CCC4(CC3)CCN(c3cnn(C5CCC(=O)NC5=O)c3)CC4)cc2)C1` (stereo partly shown) [Compound 210], the DC50 on KAT2A was 1 to 30 nM; at KAT2B, less than 1 nM.
For `CN1C[C@H](Nc2cnn(C)c(=O)c2Br)C[C@H](c2ccc(C(=O)N3CCC4(CC3)CCN(c3ccc5c(C6CCC(=O)NC6=O)nn(C)c5c3)CC4)cc2)C1` (stereo partly shown) [Compound 211], the DC50 at KAT2A and at KAT2B was less than 1 nM throughout.
On to `CN1C[C@H](Nc2cnn(C)c(=O)c2Br)C[C@H](c2ccc(C(=O)N3CCC4(CC3)CCN(c3ccc5nnn(C6CCC(=O)NC6=O)c5c3)CC4)cc2)C1` (stereo partly shown) [Compound 212], for which the figures for the DC50 at KAT2A and at KAT2B were 1 to 30 nM and more than 30 nM, respectively.
For `Cc1cc(N2CCC3(CCN(C(=O)c4ccc([C@H]5C[C@@H](Nc6c(F)nn(C)c(=O)c6Br)CN(C)C5)cc4)CC3)CC2)ccc1C1CCC(=O)NC1=O` (stereo partly shown) [Compound 213], the DC50 was less than 1 nM at KAT2A and 1 to 30 nM on KAT2B.
In the case of `CN1C[C@H](Nc2cnn(C)c(=O)c2Cl)C[C@H](c2ccc(C(=O)N3CCC4(CC3)CCN(c3ccc5nnn(C6CCC(=O)NC6=O)c5c3)CC4)cc2)C1` (stereo partly shown) [Compound 214], the DC50 at KAT2A was 1 to 30 nM; at KAT2B, more than 30 nM.
With `CN1C[C@H](Nc2cnn(C)c(=O)c2Cl)C[C@H](c2ccc(C(=O)N3CCC4(CCN(Cc5ccc(C6CCC(=O)NC6=O)c(F)c5)CC4)CC3)cc2)C1` (stereo partly shown) [Compound 215], the DC50 at KAT2A and on KAT2B was less than 1 nM each time.
Regarding `CCn1ncc(N[C@@H]2C[C@H](c3ccc(C(=O)N4CCC5(CC4)CCN(c4ccc(C6CCC(=O)NC6=O)c(C)c4)CC5)cc3)CN(C)C2)c(Br)c1=O` (stereo partly shown) [Compound 216], the DC50 at KAT2A and at KAT2B was less than 1 nM each time.
For `CN1C[C@H](Nc2cnn(C)c(=O)c2Br)C[C@H](c2ccc(C(=O)N3CCC4(CC3)CCN(c3ccn(C5CCC(=O)NC5=O)c(=O)c3)CC4)cc2)C1` (stereo partly shown) [Compound 217], the 50% degradation concentration (DC50) is 1 to 30 nM at KAT2A and more than 30 nM on KAT2B.
Regarding `Cc1cc(C2CCC(=O)NC2=O)c(F)cc1N1CCC2(CCN(C(=O)c3ccc([C@H]4C[C@@H](Nc5cnn(C)c(=O)c5Cl)CN(C)C4)cc3)CC2)CC1` (stereo partly shown) [Compound 218], the DC50 on KAT2A is less than 1 nM; at KAT2B, 1 to 30 nM.
As to `CN1C[C@H](Nc2cnn(C)c(=O)c2Br)C[C@H](c2ccc(C(=O)N3CCC4(CC3)CCN(c3ccc(C5CCC(=O)NC5=O)cc3C(F)(F)F)CC4)cc2)C1` (stereo partly shown) [Compound 220], the DC50 on KAT2A was less than 1 nM; at KAT2B, 1 to 30 nM.
In the case of `CN1C[C@H](Nc2cnn(C)c(=O)c2Br)C[C@H](c2ccc(C(=O)N3CCC4(CC3)CCN(c3ccc(C5CCC(=O)NC5=O)c(C(F)(F)F)c3)CC4)cc2)C1` (stereo partly shown) [Compound 221], the DC50 on KAT2A and on KAT2B was more than 30 nM throughout.
Take `CN1C[C@H](Nc2cnn(C)c(=O)c2Cl)C[C@H](c2ccc(C(=O)N3CCC4(CC3)CCN(c3ccc(C5CCC(=O)NC5=O)c(C(F)(F)F)c3)CC4)cc2)C1` (stereo partly shown) [Compound 222]: the DC50 at KAT2A and on KAT2B was more than 30 nM in each case.
With `Cc1c(N[C@@H]2C[C@H](c3ccc(C(=O)N4CCC5(CC4)CCN(c4ccc(C6CCC(=O)NC6=O)c(C(F)(F)F)c4)CC5)cc3)CN(C)C2)cnn(C)c1=O` (stereo partly shown) [Compound 224], the DC50 at KAT2A and at KAT2B was more than 30 nM throughout.
`Cc1c(N[C@@H]2C[C@H](c3ccc(C(=O)N4CCC5(CC4)CCN(c4ccc(C6CCC(=O)NC6=O)cc4F)CC5)cc3)CN(C)C2)cnn(C)c1=O` (stereo partly shown) [Compound 225]: the DC50 on KAT2A is less than 1 nM; on KAT2B, 1 to 30 nM.
As for `Cc1c(N[C@@H]2C[C@H](c3ccc(C(=O)N4CCC5(CC4)CCN(c4ccc(C6CCC(=O)NC6=O)cc4C(F)(F)F)CC5)cc3)CN(C)C2)cnn(C)c1=O` (stereo partly shown) [Compound 226], the DC50 at KAT2A is less than 1 nM; at KAT2B it was 1 to 30 nM.
Consider `CN1C[C@H](Nc2cnn(C)c(=O)c2Cl)C[C@H](c2ccc(C(=O)N3CCC4(CC3)CCN(c3ccc(C5CCC(=O)NC5=O)cc3C(F)(F)F)CC4)cc2)C1` (stereo partly shown) [Compound 227], for which the results for the 50% degradation concentration (DC50) on KAT2A and at KAT2B were less than 1 nM and 1 to 30 nM, respectively.
Take `Cc1c(N[C@@H]2C[C@H](c3ccc(C(=O)N4CCC5(CC4)CCN(c4cc(C(F)(F)F)c(C6CCC(=O)NC6=O)cn4)CC5)cc3)CN(C)C2)cnn(C)c1=O` (stereo partly shown) [Compound 230]: the DC50 on KAT2A and on KAT2B was 1 to 30 nM each time.
`CN1C[C@H](Nc2cnn(C)c(=O)c2Cl)C[C@H](c2ccc(C(=O)N3CCC4(CC3)CCN(c3cc(C5CCC(=O)NC5=O)ccn3)CC4)cc2)C1` (stereo partly shown) [Compound 234]: the DC50 at KAT2A and on KAT2B was less than 1 nM throughout.
Turning to `Cc1c(N2CCC3(CCN(C(=O)c4ccc([C@H]5C[C@@H](Nc6cnn(C)c(=O)c6Br)CN(C)C5)cc4)CC3)CC2)ccc(C2CCC(=O)NC2=O)c1F` (stereo partly shown) [Compound 235], the DC50 at KAT2A and at KAT2B was less than 1 nM in each case.
`Cc1c(N2CCC3(CCN(C(=O)c4ccc([C@H]5C[C@@H](Nc6cnn(C)c(=O)c6C)CN(C)C5)cc4)CC3)CC2)ccc(C2CCC(=O)NC2=O)c1F` (stereo partly shown) [Compound 236]: the half-maximal degradation concentration (DC50) was less than 1 nM on KAT2A and 1 to 30 nM on KAT2B.
The like results for `Cc1c(N2CCC3(CCN(C(=O)c4ccc([C@H]5C[C@@H](Nc6cnn(C)c(=O)c6Cl)CN(C)C5)cc4)CC3)CC2)ccc(C2CCC(=O)NC2=O)c1F` (stereo partly shown) [Compound 237] were, in that order, less than 1 nM and 1 to 30 nM.
`Cc1c(N[C@@H]2C[C@H](c3ccc(C(=O)N4CCC5(CC4)CCN(c4ccc(C6CCC(=O)NC6=O)nc4)CC5)cc3)CN(C)C2)cnn(C)c1=O` (stereo partly shown) [Compound 241]: the DC50 at KAT2A is less than 1 nM; at KAT2B, 1 to 30 nM.
As to `Cc1cc(N2CCC3(CCN(C(=O)c4ccc([C@H]5C[C@@H](Nc6cnn(C)c(=O)c6C)CN(C)C5)cc4)CC3)CC2)c(F)cc1C1CCC(=O)NC1=O` (stereo partly shown) [Compound 244], the 50% degradation concentration (DC50) at KAT2A is 1 to 30 nM; on KAT2B, more than 30 nM.
As to `Cc1cc(N2CCC3(CCN(C(=O)c4ccc([C@H]5C[C@@H](Nc6cnn(C)c(=O)c6C)CN(C)C5)cc4)CC3)CC2)cnc1C1CCC(=O)NC1=O` (stereo partly shown) [Compound 245], the values for the DC50 on KAT2A and on KAT2B were less than 1 nM and 1 to 30 nM, respectively.
